Data published in publication PMC4445981, “The glutamate transport inhibitor DL-Threo-β-Benzyloxyaspartic acid (DL-TBOA) differentially affects SN38- and oxaliplatin-induced death of drug-resistant colorectal cancer cells” (BMC Cancer, 2015).

Test system: PARP-1 cleavage
Experiment: PARP-1 cleavage by Western blotting
Type: cell-based, human
Conditions: DL-TBOA; HCT116 and LoVo cells
Experimental: Cells were grown to a confluence of 60-80 % and treated with chemotherapy, siRNA- or plasmid transfection as indicated. Cells were washed once in PBS, lysed in lysis buffer (1 % SDS, 0.1 M Tris pH 7.5, and 1 mM Na3VO4), sonicated, and protein content determined (DC assay, BioRad). Lysates were mixed 2:1with NuPage LDS sample buffer (Invitrogen). SDS-PAGE was carried out in NOVEX chambers with NuPAGE 10 % Bis-Tris gels under reducing and denaturing conditions, using BenchMark protein ladder (Invitrogen), and 15 μg protein per lane. Proteins were transferred to PVDF membranes, which were Ponceau S stained, blocked for 1 h at 37 °C in 5 % nonfat dry milk in TBST (0.01 M Tris/HCl, 0.15 M NaCl, 0.1 % Tween 20, pH 7.4), incubated overnight at 4 °C with primary antibodies diluted in blocking buffer, washed in TBST, incubated with secondary antibodies for 1 h, washed in TBST, and developed using BCIP/NBT (KPL). Bands were scanned and quantified using UN-SCAN-IT (Silk Scientific).
Supplementary file 12885_2015_1405_MOESM3_ESM.tiff: Additional file 3: Figure S3. […] Equal amounts of protein per lane were separated by SDS-PAGE and the protein levels of p21, and PARP-1 (full-length and cleaved, the latter indicated by arrowheads) were determined by Western blotting. […] Bottom: Densitometric quantifications based on 3 independent experiments per condition. […]

N[C@H](C(=O)O)[C@H](OCc1ccccc1)C(=O)O (racemic) [TBOA, DL-Threo-β-Benzyloxyaspartic acid]
effect on cellular level of cleaved PARP-1: did not significantly alter
